Source: patent US20030008857A1, “Photodynamic therapy (PDT) in combination with factors that bind cell surface apoptosis-inducing receptors” (priority 1999, published 2003)

Key:
Type in all cases: cell-based, human
Details in all cases: TRAIL 20 ng/ml, 3 hours, Jurkat whole cell extracts
[1] = test system: IETDase (caspase 8); assay: Protease assay of cell extracts with Ac-IETD-AMC
Protocol: (§1) The human Jurkat T cell line containing a neomycin resistance gene was obtained from Dr. Charles Rudin (University of Chicago). Cells were maintained in RPMI 1640 medium containing 10% heat-inactivated fetal calf serum (FCS) with penicillin (100 U/mL), streptomycin (100 μg/mL), 20 mM HEPES, 2 mM L-glutamine and G418 (1 μg/ml) purchased from Gibco BRL (Burlington, Ontario) in a CO2 incubator at 37° C. To elicit apoptosis with PDT, Jurkat cells were incubated with different amounts of liposomally formulated benzoporphyrin derivative monoacid ring A (BPD-MA, verteporfin, QLT PhotoTherapeutics, Inc., Vancouver, Canada) for one hour at 37° C. under light-protected conditions. The culture medium used for experiments was identical to that used for the passage of the cells except that FCS was used at a concentration of 5%. Experiments were conducted either in 6-well culture plates at 5×10^6 cells in a volume of 4 ml per well or in 96-well microtiter plates at 1×10^5 cells per well at 0.2 ml per well. […]
(§2) These sequences are denoted by letter codes for each amino acid. […] The reaction mixture was incubated at 37° C. for 1 (DEVD.AMC) or 24 (VEID.AMC and IETH.AMC) h and fluorescence was measured using an excitation at 380 nm and an emission wavelength of 460 nm with a CytoFluor™ 2350 fluorescent measuring system (Perseptive Biosystems, Burlington, Ont).

[2] = test system: DEVDase (caspases 3 and 7); assay: Protease assay of cell extracts with Ac-DEVD-AMC
Protocol: as §1, §2

[3] = test system: VEIDase (caspase 6); assay: Protease assay of cell extracts with Ac-VEID-AMC
Protocol: as §1, §2

Substance: TRAIL: recombinant, residues 114-281 of the soluble domain of human TRAIL (BIOMOL)
- increase in IETDase-like activity versus control cells [1]: two-fold
- increase in DEVDase-like activity versus control cells [2]: approximately four-fold
- increase in VEIDase-like activity versus control cells [3]: two-fold
